Consider 1 compound from US9492471B2, “Methods of treating a disease or disorder associated with Bruton'S Tyrosine Kinase” (Celgene Avilomics Research, Inc., priority 2013, dated 2016).

SMILES strings stand for the structures. Where two headings read alike, the source gives them in different places.

What all share (experiment): HotSpot kinase profiling
Holding throughout (format): biochemical

The target of experiment [1] is T1, MNK1 (Homo sapiens, UniProt Q9BUB5).
T1 construct: purchased Reaction Biology Corp
The procedure, abridged:
(§1)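 Percent inhibition, averaged when run more than once and referenced to a DMSO negative control, came from a radioactive filter-binding readout on P81 paper. Reactions of kinase with freshly made substrate and cofactors ran for 2 h at room temperature.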

In experiment [2] the target is T2, NEK7 (Homo sapiens, UniProt Q8TDX7).
T2 construct: purchased Reaction Biology Corp
The procedure, abridged: as §1

For experiment [3], the target named is T3, ZAP70 (Homo sapiens, UniProt P43403).
T3 construct: purchased Reaction Biology Corp
T3 sequence (P43403 1-619): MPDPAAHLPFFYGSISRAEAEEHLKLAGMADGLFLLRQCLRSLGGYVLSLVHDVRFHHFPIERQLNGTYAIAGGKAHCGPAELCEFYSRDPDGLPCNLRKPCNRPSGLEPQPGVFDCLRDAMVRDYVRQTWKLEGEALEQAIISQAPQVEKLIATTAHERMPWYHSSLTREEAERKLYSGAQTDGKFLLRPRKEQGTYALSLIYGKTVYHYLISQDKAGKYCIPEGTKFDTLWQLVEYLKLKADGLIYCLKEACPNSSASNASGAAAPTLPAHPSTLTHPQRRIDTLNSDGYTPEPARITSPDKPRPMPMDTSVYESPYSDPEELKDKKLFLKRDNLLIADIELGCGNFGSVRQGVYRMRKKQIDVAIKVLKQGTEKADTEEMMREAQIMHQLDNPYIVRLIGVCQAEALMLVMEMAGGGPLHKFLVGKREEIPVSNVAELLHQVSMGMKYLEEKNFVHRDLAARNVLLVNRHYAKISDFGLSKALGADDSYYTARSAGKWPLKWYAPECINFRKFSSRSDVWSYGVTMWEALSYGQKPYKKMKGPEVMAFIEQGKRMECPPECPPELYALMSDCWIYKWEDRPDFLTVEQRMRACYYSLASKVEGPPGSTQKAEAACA
The procedure, abridged: as §1

Experiment [4] deals with T4, RET (Homo sapiens, UniProt P07949).
T4 construct: purchased Reaction Biology Corp
The procedure, abridged:
as §1

The target in experiment [5] is T5, STK16 (Homo sapiens, UniProt O75716).
T5 construct: purchased Reaction Biology Corp
The procedure, abridged: as §1

The target in experiment [6] is T6, MEK1 (Homo sapiens, UniProt Q02750).
T6 construct: purchased Reaction Biology Corp
The procedure, abridged: as §1

For experiment [7], the target named is T7, P38a/MAPK14 (Homo sapiens, UniProt Q16539).
T7 construct: purchased Reaction Biology Corp
The procedure, abridged: as §1

Experiment [8] addresses T8, NEK9 (Homo sapiens, UniProt Q8TD19).
T8 construct: purchased Reaction Biology Corp
T8 sequence (Q8TD19 1-979): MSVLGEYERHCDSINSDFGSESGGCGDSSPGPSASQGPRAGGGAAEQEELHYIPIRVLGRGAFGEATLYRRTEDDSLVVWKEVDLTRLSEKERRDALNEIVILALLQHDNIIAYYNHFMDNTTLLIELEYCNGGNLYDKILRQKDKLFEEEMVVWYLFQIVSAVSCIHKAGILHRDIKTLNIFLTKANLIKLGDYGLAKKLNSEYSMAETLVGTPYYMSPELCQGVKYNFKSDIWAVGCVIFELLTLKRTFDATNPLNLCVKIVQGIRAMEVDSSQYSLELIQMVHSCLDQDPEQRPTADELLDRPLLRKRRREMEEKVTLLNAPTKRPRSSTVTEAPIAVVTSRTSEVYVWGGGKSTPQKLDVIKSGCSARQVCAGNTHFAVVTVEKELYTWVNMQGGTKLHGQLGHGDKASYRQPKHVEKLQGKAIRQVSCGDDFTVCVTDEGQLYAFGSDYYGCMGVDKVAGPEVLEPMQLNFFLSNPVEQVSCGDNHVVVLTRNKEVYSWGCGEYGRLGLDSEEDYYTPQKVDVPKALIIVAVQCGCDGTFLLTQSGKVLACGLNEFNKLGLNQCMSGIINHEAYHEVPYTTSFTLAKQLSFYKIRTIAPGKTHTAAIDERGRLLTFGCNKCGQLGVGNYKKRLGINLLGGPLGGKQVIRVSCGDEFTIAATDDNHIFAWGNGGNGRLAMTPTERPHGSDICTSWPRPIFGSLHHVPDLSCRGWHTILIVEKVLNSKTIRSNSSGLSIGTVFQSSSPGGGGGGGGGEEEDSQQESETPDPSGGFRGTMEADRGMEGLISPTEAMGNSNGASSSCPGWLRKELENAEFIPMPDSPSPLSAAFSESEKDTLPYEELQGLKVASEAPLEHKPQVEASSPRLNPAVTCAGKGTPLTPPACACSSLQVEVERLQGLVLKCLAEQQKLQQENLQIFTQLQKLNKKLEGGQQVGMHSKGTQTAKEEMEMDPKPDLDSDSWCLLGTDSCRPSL
The procedure, abridged: as §1

[9] abbreviates: read-out: % Enzyme Activity (relative to DMSO controls) Run 1.
Setting [10] is: read-out: % Enzyme Activity (relative to DMSO controls) Run 2.

T5 sequence (O75716 whole entry): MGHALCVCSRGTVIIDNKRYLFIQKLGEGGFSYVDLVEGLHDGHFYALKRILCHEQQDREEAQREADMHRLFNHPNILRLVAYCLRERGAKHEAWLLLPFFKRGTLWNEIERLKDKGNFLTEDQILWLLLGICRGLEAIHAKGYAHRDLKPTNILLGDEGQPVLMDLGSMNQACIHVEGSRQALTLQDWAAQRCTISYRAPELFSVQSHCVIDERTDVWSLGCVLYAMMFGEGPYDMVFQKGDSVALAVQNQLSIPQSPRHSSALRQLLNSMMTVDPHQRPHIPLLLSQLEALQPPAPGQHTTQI
T4 sequence (P07949 29-1114): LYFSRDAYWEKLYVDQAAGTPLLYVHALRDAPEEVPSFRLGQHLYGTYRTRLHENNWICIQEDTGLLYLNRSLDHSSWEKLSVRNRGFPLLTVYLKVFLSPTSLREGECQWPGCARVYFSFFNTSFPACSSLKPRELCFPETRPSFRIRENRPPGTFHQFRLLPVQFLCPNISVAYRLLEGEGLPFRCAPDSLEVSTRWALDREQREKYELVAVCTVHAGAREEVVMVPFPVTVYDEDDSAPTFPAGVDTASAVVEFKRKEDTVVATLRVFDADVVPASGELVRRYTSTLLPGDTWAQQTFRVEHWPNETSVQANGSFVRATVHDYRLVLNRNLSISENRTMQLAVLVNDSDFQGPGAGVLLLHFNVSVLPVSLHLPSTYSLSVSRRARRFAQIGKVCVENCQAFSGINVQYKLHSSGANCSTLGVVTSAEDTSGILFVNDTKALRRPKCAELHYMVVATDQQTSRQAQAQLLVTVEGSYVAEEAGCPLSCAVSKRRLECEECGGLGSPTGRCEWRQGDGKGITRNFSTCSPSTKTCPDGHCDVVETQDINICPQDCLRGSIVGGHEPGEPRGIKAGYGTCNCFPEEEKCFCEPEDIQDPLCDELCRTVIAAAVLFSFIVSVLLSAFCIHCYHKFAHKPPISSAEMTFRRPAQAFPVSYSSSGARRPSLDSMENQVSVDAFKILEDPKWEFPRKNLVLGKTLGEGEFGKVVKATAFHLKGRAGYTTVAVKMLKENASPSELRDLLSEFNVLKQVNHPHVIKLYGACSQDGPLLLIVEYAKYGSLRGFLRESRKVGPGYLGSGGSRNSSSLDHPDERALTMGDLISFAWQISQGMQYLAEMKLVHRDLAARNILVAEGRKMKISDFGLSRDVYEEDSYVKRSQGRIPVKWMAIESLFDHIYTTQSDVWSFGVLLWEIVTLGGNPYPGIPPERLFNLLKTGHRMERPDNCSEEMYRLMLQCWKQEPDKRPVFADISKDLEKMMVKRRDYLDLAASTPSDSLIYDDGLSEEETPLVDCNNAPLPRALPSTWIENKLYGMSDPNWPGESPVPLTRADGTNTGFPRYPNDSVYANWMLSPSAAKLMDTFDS
T1 sequence (Q9BUB5 whole entry): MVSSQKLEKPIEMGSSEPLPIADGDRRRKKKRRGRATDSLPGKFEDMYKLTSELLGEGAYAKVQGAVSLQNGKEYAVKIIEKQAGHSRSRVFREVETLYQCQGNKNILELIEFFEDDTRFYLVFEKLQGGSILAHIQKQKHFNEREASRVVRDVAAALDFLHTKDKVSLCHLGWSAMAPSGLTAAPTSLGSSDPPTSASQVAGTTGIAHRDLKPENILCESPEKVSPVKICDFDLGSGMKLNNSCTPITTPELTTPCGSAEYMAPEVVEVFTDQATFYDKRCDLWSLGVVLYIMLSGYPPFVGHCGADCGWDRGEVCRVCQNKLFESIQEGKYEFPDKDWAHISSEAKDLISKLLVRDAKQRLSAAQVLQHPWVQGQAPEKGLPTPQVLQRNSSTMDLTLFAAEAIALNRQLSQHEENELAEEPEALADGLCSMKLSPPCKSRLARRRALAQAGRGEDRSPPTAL
T2 sequence (Q8TDX7 whole entry): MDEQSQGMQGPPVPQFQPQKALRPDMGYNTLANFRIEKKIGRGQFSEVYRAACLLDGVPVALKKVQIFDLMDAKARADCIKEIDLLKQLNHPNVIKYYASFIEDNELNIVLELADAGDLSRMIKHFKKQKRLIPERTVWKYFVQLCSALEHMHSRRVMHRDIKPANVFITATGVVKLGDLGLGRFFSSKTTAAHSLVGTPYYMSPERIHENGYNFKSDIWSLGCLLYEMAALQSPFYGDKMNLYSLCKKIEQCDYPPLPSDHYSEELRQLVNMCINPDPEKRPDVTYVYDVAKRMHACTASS
T7 sequence (Q16539 whole entry): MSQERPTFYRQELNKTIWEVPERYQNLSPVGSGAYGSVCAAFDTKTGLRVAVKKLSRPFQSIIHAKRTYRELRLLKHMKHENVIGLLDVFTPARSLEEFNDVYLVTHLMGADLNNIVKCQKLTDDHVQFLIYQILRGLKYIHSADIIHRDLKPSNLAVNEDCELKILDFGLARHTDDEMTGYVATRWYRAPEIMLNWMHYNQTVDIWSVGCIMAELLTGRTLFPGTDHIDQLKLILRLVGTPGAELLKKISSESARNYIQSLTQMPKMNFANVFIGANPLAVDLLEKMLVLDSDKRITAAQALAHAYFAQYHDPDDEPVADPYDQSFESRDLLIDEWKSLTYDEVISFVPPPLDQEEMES
T6 sequence (Q02750 whole entry): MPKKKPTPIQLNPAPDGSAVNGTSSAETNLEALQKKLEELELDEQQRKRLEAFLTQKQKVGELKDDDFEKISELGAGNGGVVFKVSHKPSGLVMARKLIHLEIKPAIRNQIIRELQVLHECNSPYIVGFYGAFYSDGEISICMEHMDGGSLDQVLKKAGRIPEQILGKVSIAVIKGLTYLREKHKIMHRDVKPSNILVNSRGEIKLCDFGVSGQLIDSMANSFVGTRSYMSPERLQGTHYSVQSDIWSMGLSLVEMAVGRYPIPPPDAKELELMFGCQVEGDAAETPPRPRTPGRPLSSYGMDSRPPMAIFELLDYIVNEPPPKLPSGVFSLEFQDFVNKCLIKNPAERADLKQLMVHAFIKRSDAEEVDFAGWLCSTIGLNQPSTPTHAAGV

For the compound `C=CC(=O)Nc1cccc(Nc2nc(Nc3ccc(OCCOC)c(F)c3)ncc2F)c1` [Compound 2], the inhibition at 3 µM in experiment [1] was 3.98%; in experiment [2], 0.68%; in experiment [3] it was -9.21%; in experiment [4] it was 86.6%; in experiment [5] it was 78%; in experiment [6] it was -10.3%. The inhibition at 3 µM is -6.68% in experiment [7] and 15.9% in experiment [8]. Further, the remaining activity at 3 µM amounted to 97.8% in experiment [1] (setting [9]); 94.3% in experiment [1] (setting [10]); 98.3% in experiment [2] (setting [9]); 100% in experiment [2] (setting [10]); 110% in experiment [3] (setting [9]); 108% in experiment [3] (setting [10]). The remaining activity at 3 µM was found to be 13.2% in experiment [4] (setting [9]); 13.6% in experiment [4] (setting [10]); 22.9% in experiment [5] (setting [9]); 21% in experiment [5] (setting [10]); 109% in experiment [6] (setting [9]); 112% in experiment [6] (setting [10]). Moreover, the remaining activity at 3 µM was 106% in experiment [7] (setting [9]), 108% in experiment [7] (setting [10]), 83.8% in experiment [8] (setting [9]) and 84.3% in experiment [8] (setting [10]).
